## CCC(CC)C(=O)NS(=O)(=O)c1ccccc1[N+](=O)[O-]
  logP: 2.17

## CC(C)C(=O)Nc1cc(Cl)ccc1S(N)(=O)=O
  logP: 1.87

## CCC(CC)C(=O)Nc1ccccc1S(N)(=O)=O
  logP: 1.62

## CCC(CC)C(=O)NS(=O)(=O)c1ccc(C)cc1N
  logP: 2.18

## CCC(CC)C(=O)NS(=O)(=O)c1ccccc1N
  logP: 1.64

## Cc1ccc(S(=O)(=O)NC(=O)C(C)C)c([N+](=O)[O-])c1
  logP: 2.17

## Cc1ccc(S(N)(=O)=O)c(NC(=O)C(C)C)c1
  logP: 1.45

## CCC(CC)C(=O)NS(=O)(=O)c1ccc(C)cc1[N+](=O)[O-]
  logP: 2.67

## CCC(CC)C(=O)NS(=O)(=O)c1ccc(Cl)cc1N
  logP: 2.53

## CC(C)C(=O)NS(=O)(=O)c1ccccc1[N+](=O)[O-]
  logP: 1.72

## CCC(CC)C(=O)NS(=O)(=O)c1cc([N+](=O)[O-])cc(C(F)(F)F)c1
  logP: 3.57

## CCC(CC)C(=O)NS(=O)(=O)c1ccc(OC)cc1N
  logP: 2.03

## COc1ccc(S(N)(=O)=O)c(NC(=O)C(C)C)c1
  logP: 1.37

## CCC(CC)C(=O)Nc1cc(C(F)(F)F)ccc1S(N)(=O)=O
  logP: 3.06

## CC(C)C(=O)NS(=O)(=O)c1cc([N+](=O)[O-])cc(C(F)(F)F)c1
  logP: 3.1

## Cc1ccc(S(=O)(=O)NC(=O)C(C)C)c(N)c1
  logP: 1.65

## CC(C)C(=O)NS(=O)(=O)c1ccc(C(F)(F)F)cc1N
  logP: 2.56

## CC(C)C(=O)NS(=O)(=O)c1ccccc1N
  logP: 1.17

## CC(C)C(=O)Nc1ccc(C(F)(F)F)cc1S(N)(=O)=O
  logP: 2.45

## CCC(CC)C(=O)Nc1cc(C)ccc1S(N)(=O)=O
  logP: 2.13

## CCC(CC)C(=O)Nc1cc(Cl)ccc1S(N)(=O)=O
  logP: 2.55

## CC(C)C(=O)Nc1ccccc1S(N)(=O)=O
  logP: 0.97

## CCC(CC)C(=O)Nc1cc(OC)ccc1S(N)(=O)=O
  logP: 2.01

## COc1ccc(S(=O)(=O)NC(=O)C(C)C)c(N)c1
  logP: 1.58

Source: the SangsterLogP compilation
